From US12687780B2, “Curable water-based composition, active-energy-ray-curable water-based composition, active-energy-ray-curable water-based ink, stored container, two-dimensional or three-dimensional image forming apparatus, two-dimensional or three-dimensional image forming method, cured product, and decorated body” (Ricoh Company, Ltd., priority 2021, dated 2026)

assay: Skin sensitivity: stimulation index (SI) value by the LLNA method (OECD test guideline 429); assay type: in vivo; details: stimulation index of the single compound (raw material)

Compound	SI value
C=CC(=O)NCC(=O)OC [Example A1-2, N-acryloylglycine methyl ester]	(see Synthesis example 2) SI = 1.01
C=CC(=O)NCC(=O)OCC [Example A1-3, N-acryloylglycine ethyl ester]	(see Synthesis example 3) SI = 1.21
C=CC(=O)NCCCC(=O)OC [Example A1-5, N-acryloyl-4-butyric acid methyl ester]	(see Synthesis example 5) SI = 1.45
C=CC(=O)NC(C)C(=O)OC (stereo not shown) [Example A1-6, N-acryloyl alaninemethyl ester]	(see Synthesis example 6) SI = 1.37
C=CC(=O)N(C)CC(=O)OC [Example A2-1, N-acryloyl-N-methyl glycine methyl ester]	(see Synthesis example 7) SI = 1.00
C=CC(=O)N1CCC(C(=O)OCC)CC1 [Example A2-5, ethyl N-acryloylpiperidine-4-carboxylate]	(see Synthesis example 10) SI = 1.70
C=CC(=O)NCNC(=O)C=C [Example B1-1]	SI = 1.08
C=CC(=O)NCCNC(=O)C=C [Example B1-2]	SI = 1.23
C=CC(=O)NCCN(CCNC(=O)C=C)C(=O)C=C [Example B1-3]	“FOM-03007” obtained from FUJIFILM Corporation SI = 1.44
C=CC(=O)NCCN(CCN(CCNC(=O)CC)C(=O)C=C)C(=O)C=C [Example B1-4]	“FOM-03009” obtained from FUJIFILM Corporation SI = 1.52
